Measurements as given in ChEMBL document CHEMBL1129161, “Studies on the active metabolite (DU-86) of KW-2189, a novel derivative of duocarmycin” (Bioorg Med Chem Lett, 1996).

Assays:
HeLa [1] = test: Concentration required to inhibit the growth of HeLa S3 cells after 1 hour.; assay type: functional, cell-based; settings: Homo sapiens
HeLa [2] = test: Concentration required to inhibit the growth of HeLa S3 cells after 72 hours.; assay type: functional, cell-based; settings: Homo sapiens
Sarcoma-180 [3] = test: Antitumor activity expressed as T/C at an intravenous dose of 0.13 mg/kg in mice implanted subcutaneously with murine sarcoma 180 cells.; assay type: functional, Mus musculus
Sarcoma-180 [4] = test: Antitumor activity expressed as T/C at an intravenous dose of 1.0 mg/kg in mice implanted subcutaneously with murine sarcoma 180 cells.; assay type: functional, Mus musculus
Sarcoma-180 [5] = test: Antitumor activity expressed as T/C at an intravenous dose of 8.0 mg/kg in mice implanted subcutaneously with murine sarcoma 180 cells.; assay type: functional, Mus musculus

Row | IC50 (HeLa [1]) [nM] | IC50 (HeLa [2]) [nM] | Compound | T/C (Sarcoma-180 [3]) | T/C (Sarcoma-180 [4]) | T/C (Sarcoma-180 [5])
1 | 36 | 6.6 | COC(=O)c1c(C)[nH]c2c1[C@@]13C[C@@H]1Cn1c(O)c4nc5c(OC)c(OC)c(OC)cc5c-4c(c13)C2=O |  |  | 
2 |  |  | COC(=O)c1c(C)[nH]c2c1[C@@]13C[C@@H]1CN(C(=O)c1cc4cc(OC)c(OC)c(OC)c4[nH]1)C3=CC2=O | 0.18 |  | 
3 | 1.4 | 0.069 | COC(=O)c1c2c(n(C)c1C)C(=O)C=C1N(C(=O)c3cc4cc(OC)c(OC)c(OC)c4[nH]3)C[C@H]3C[C@]123 |  | 0.22 | 
4 | 890 | 230 | COC(=O)c1c2c(n(C)c1C)C(=O)C=C1N(C(=O)c3cc4cc(OC)c(OC)c(OC)c4n3C)C[C@H]3C[C@]123 |  |  | 0.96
